These results are taken from US8318947B2, “Comestible compositions comprising high potency savory flavorants, and processes for producing them” (Senomyx, Inc., priority 2006, dated 2012).

The assay deals with T1, hT1R1/hT1R3 umami receptor expressed in an HEK293 cell line (Homo sapiens, UniProt Q7RTX0+Q7RTX1).
T1 construct: expressed in transfected cells; host or cells: HEK293 cell line derivative, clone 1-17, expression induced with mifepristone
T1 sequence (Q7RTX1 21-841): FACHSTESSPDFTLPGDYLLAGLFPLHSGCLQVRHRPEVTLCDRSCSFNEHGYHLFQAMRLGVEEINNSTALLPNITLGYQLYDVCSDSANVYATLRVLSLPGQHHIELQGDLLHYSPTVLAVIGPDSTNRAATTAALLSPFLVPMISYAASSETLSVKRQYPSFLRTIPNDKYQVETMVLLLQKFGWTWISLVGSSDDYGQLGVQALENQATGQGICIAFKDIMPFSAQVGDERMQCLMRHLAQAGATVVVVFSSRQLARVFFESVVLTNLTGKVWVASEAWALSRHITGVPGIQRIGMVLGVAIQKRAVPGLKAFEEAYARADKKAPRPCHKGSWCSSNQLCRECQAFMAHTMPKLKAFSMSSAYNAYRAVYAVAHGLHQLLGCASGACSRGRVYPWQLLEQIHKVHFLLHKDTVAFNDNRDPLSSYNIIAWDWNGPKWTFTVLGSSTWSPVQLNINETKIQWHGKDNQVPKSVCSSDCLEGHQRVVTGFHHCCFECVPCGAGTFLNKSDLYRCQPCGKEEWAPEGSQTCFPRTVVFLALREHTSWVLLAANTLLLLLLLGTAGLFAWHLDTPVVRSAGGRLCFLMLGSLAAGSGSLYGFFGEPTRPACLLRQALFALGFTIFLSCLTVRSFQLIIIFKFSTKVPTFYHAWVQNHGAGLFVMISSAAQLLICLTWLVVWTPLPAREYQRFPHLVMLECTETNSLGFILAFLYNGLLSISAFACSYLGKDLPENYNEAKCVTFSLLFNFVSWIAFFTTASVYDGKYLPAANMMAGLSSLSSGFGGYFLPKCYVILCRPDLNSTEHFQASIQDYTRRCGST
T1 sequence (Q7RTX0 21-852): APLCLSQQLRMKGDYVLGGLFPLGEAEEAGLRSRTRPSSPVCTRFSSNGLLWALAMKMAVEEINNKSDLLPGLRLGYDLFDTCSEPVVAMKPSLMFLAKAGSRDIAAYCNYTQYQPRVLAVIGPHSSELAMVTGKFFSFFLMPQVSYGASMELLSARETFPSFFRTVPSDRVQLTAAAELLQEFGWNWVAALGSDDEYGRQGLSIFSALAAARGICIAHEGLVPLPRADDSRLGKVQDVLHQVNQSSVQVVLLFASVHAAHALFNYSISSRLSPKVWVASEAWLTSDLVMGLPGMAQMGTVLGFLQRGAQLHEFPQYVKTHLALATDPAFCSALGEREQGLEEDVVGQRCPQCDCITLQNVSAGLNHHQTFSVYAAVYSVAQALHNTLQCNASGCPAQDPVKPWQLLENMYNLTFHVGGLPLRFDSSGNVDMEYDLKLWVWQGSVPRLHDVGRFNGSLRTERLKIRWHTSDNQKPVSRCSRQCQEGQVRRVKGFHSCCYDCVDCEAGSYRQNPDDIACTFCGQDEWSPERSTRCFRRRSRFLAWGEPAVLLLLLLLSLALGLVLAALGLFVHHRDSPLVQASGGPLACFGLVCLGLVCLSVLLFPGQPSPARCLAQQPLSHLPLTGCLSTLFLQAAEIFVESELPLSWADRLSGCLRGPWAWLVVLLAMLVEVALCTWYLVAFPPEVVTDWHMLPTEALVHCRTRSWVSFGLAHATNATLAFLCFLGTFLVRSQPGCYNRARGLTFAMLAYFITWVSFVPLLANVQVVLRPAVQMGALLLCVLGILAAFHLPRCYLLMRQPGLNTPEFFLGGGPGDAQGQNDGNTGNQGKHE
Description: Umami taste enhancement assay (EC50 ratio vs. MSG). It is filed as cell-based. The source says: In umami taste enhancement activity assay experiments, which produce an “EC50 ratio” measurement of how effectively the amide compounds of the invention enhance the savory flavorant (typically MSG) already in a test solution. A series of measurements of the dose response is run in solutions comprising MSG alone, then a second dose response is run with MSG in combination with predetermined amounts of a candidate compound of Formula (I) at the same time.
In this assay, increasing concentrations of monosodium glutamate (ranging from 12 μM to 81 mM) were presented, in duplicates, in the presence or absence of a fixed concentration of the test compound. Typical compound concentrations tested were 30 μM, 10 μM, 3 μM, 1 μM, 0.3 μM, 0.1 μM and 0.03 μM. The relative efficacy of compounds of […] at enhancing the receptor was determined by calculating the magnitude of a shift in the EC50 for monosodium glutamate. Enhancement was defined as a ratio (EC50R) corresponding to the EC50 of monosodium glutamate, determined in the absence of the test compound, divided by the EC50 of monosodium glutamate, determined in the presence of the test compound.
Stated alternatively, “EC50 ratio” as compared to MSG is calculated based on the following definitions:
EC50 Ratio vs. MSG=EC50 (MSG)/EC50 (MSG+[Compound]) wherein “[compound]” refers to the concentration of the compound of Formula (I) used to elicit (or enhance or potentiate) the MSG dose response.
It should be noted that the EC50 ratio measured can depend somewhat on the concentration of the compound itself. Preferred savory enhancers would have a high EC50 Ratio vs. MSG at a low concentration of the compound used.

Consider `CCCC(CCC)NC(=O)c1ccc2c(c1)OCO2` [Example 1, N-(heptan-4-yl)benzo[d][1,3]dioxole-5-carboxamide], for which the “EC50 ratio (enhancement of the effectiveness of monosodium glutamate)” value (compound present at 0.03 μM) was 6.92.

On to `COc1ccc(CNC(=O)C(=O)NCCc2ccccn2)c(OC)c1` [Example 24, N-(2,4-Dimethoxy-benzyl)-N′-(2-pyridin-2-yl-ethyl)-oxalamide], for which the “EC50 ratio (enhancement of the effectiveness of monosodium glutamate)” value (compound present at 0.3 μM) is given as 6.51.
